# Results from PubChem BioAssay (NCI).
#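 How tested: cells in 96-well plates exposed to compound for 48 hours at five concentrations. TGI: total growth inhibition.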
# Experiments:
# Experiment in all cases: growth of human tumour cells (NCI), 48 h
# TK-10 renal = tested on: TK-10 renal
# MALME-3M melanoma = tested on: MALME-3M melanoma
# SR leukemia = tested on: SR leukemia
# 786-0 renal = tested on: 786-0 renal
# OVCAR-4 ovarian = tested on: OVCAR-4 ovarian
# OVCAR-5 ovarian = tested on: OVCAR-5 ovarian
# NCI-H226 lung = tested on: NCI-H226 lung
# KM12 colon = tested on: KM12 colon
# SN12C renal = tested on: SN12C renal
# HT29 colon = tested on: HT29 colon
# SK-MEL-5 melanoma = tested on: SK-MEL-5 melanoma
# NCI-H23 lung = tested on: NCI-H23 lung
# K-562 leukemia = tested on: K-562 leukemia
# MOLT-4 leukemia = tested on: MOLT-4 leukemia
# NCI-H522 lung = tested on: NCI-H522 lung
# A498 renal = tested on: A498 renal
# UO-31 renal = tested on: UO-31 renal
# SK-MEL-28 melanoma = tested on: SK-MEL-28 melanoma
# IGROV1 ovarian = tested on: IGROV1 ovarian
# HCT-15 colon = tested on: HCT-15 colon
# NCI-H460 lung = tested on: NCI-H460 lung
# HS 578T breast = tested on: HS 578T breast
# SF-295 CNS = tested on: SF-295 CNS
# RPMI-8226 leukemia = tested on: RPMI-8226 leukemia
# MDA-MB-231 breast = tested on: MDA-MB-231 breast
# LOX IMVI melanoma = tested on: LOX IMVI melanoma
# SW-620 colon = tested on: SW-620 colon
# SK-OV-3 ovarian = tested on: SK-OV-3 ovarian
# T-47D breast = tested on: T-47D breast
# PC-3 prostate = tested on: PC-3 prostate
# OVCAR-8 ovarian = tested on: OVCAR-8 ovarian
# MCF7 breast = tested on: MCF7 breast
# SF-539 CNS = tested on: SF-539 CNS
# U251 CNS = tested on: U251 CNS
# CAKI-1 renal = tested on: CAKI-1 renal
# HOP-92 NSCLC = tested on: HOP-92 NSCLC
# MDA-N = tested on: MDA-N
# SNB-19 CNS = tested on: SNB-19 CNS
# UACC-257 melanoma = tested on: UACC-257 melanoma
# DU-145 prostate = tested on: DU-145 prostate
# ACHN renal = tested on: ACHN renal
# A549 NSCLC = tested on: A549 NSCLC
# BT-549 breast = tested on: BT-549 breast
# CCRF-CEM leukemia = tested on: CCRF-CEM leukemia
# UACC-62 melanoma = tested on: UACC-62 melanoma
# HCT-116 colon = tested on: HCT-116 colon
# MDA-MB-435 = tested on: MDA-MB-435
# SF-268 CNS = tested on: SF-268 CNS
# HL-60(TB) leukemia = tested on: HL-60(TB) leukemia
# HCC-2998 colon = tested on: HCC-2998 colon
# COLO 205 colon = tested on: COLO 205 colon
# OVCAR-3 ovarian = tested on: OVCAR-3 ovarian
# SK-MEL-2 melanoma = tested on: SK-MEL-2 melanoma
# NCI/ADR-RES ovarian = tested on: NCI/ADR-RES ovarian
# EKVX NSCLC = tested on: EKVX NSCLC
# M14 melanoma = tested on: M14 melanoma
# RXF 393 renal = tested on: RXF 393 renal
# HOP-62 NSCLC = tested on: HOP-62 NSCLC
# SNB-75 CNS = tested on: SNB-75 CNS
smiles,measurement,setting,value
Nc1nc(Cl)cc(Nc2ccc3c(c2)CCC3)n1,TGI,TK-10 renal,> 100 µM
same,TGI,MALME-3M melanoma,> 100 µM
same,TGI,SR leukemia,63.3 µM
same,TGI,786-0 renal,> 100 µM
same,TGI,OVCAR-4 ovarian,> 100 µM
same,TGI,OVCAR-5 ovarian,> 100 µM
same,TGI,NCI-H226 lung,> 100 µM
same,TGI,KM12 colon,> 100 µM
same,TGI,SN12C renal,> 100 µM
same,TGI,HT29 colon,> 100 µM
same,TGI,SK-MEL-5 melanoma,> 100 µM
same,TGI,NCI-H23 lung,> 100 µM
same,TGI,K-562 leukemia,> 100 µM
same,TGI,MOLT-4 leukemia,84.7 µM
same,TGI,NCI-H522 lung,> 100 µM
same,TGI,A498 renal,> 100 µM
same,TGI,UO-31 renal,> 100 µM
same,TGI,SK-MEL-28 melanoma,> 100 µM
same,TGI,IGROV1 ovarian,> 100 µM
same,TGI,HCT-15 colon,> 100 µM
same,TGI,NCI-H460 lung,> 100 µM
same,TGI,HS 578T breast,> 100 µM
same,TGI,SF-295 CNS,> 100 µM
same,TGI,RPMI-8226 leukemia,65.1 µM
same,TGI,MDA-MB-231 breast,> 100 µM
same,TGI,LOX IMVI melanoma,> 100 µM
same,TGI,SW-620 colon,> 100 µM
same,TGI,SK-OV-3 ovarian,> 100 µM
same,TGI,T-47D breast,> 100 µM
same,TGI,PC-3 prostate,> 100 µM
same,TGI,OVCAR-8 ovarian,> 100 µM
same,TGI,MCF7 breast,> 100 µM
same,TGI,SF-539 CNS,> 100 µM
same,TGI,U251 CNS,> 100 µM
same,TGI,CAKI-1 renal,> 100 µM
same,TGI,HOP-92 NSCLC,> 100 µM
same,TGI,MDA-N,> 100 µM
same,TGI,SNB-19 CNS,> 100 µM
same,TGI,UACC-257 melanoma,> 100 µM
same,TGI,DU-145 prostate,> 100 µM
same,TGI,ACHN renal,> 100 µM
same,TGI,A549 NSCLC,> 100 µM
same,TGI,BT-549 breast,> 100 µM
same,TGI,CCRF-CEM leukemia,> 100 µM
same,TGI,UACC-62 melanoma,> 100 µM
same,TGI,HCT-116 colon,> 100 µM
same,TGI,MDA-MB-435,> 100 µM
same,TGI,SF-268 CNS,> 100 µM
same,TGI,HL-60(TB) leukemia,80.9 µM
same,TGI,HCC-2998 colon,> 100 µM
same,TGI,COLO 205 colon,> 100 µM
same,TGI,OVCAR-3 ovarian,> 100 µM
same,TGI,SK-MEL-2 melanoma,> 100 µM
same,TGI,NCI/ADR-RES ovarian,> 100 µM
same,TGI,EKVX NSCLC,> 100 µM
same,TGI,M14 melanoma,> 100 µM
COc1ccc(OC)c(C2CCc3cnc4nc(N)nc(N)c4c3C2)c1 (stereo not drawn),TGI,TK-10 renal,> 100 µM
same,TGI,MALME-3M melanoma,> 100 µM
same,TGI,SR leukemia,> 100 µM
same,TGI,786-0 renal,> 100 µM
same,TGI,OVCAR-4 ovarian,> 100 µM
same,TGI,OVCAR-5 ovarian,> 100 µM
same,TGI,KM12 colon,> 100 µM
same,TGI,SN12C renal,> 100 µM
same,TGI,HT29 colon,> 100 µM
same,TGI,SK-MEL-5 melanoma,> 100 µM
same,TGI,NCI-H23 lung,> 100 µM
same,TGI,K-562 leukemia,> 100 µM
same,TGI,MOLT-4 leukemia,> 100 µM
same,TGI,NCI-H522 lung,> 100 µM
same,TGI,A498 renal,> 100 µM
same,TGI,UO-31 renal,85.3 µM
same,TGI,SK-MEL-28 melanoma,> 100 µM
same,TGI,IGROV1 ovarian,> 100 µM
same,TGI,HCT-15 colon,> 100 µM
same,TGI,NCI-H460 lung,> 100 µM
same,TGI,HS 578T breast,> 100 µM
same,TGI,SF-295 CNS,> 100 µM
same,TGI,RPMI-8226 leukemia,> 100 µM
same,TGI,MDA-MB-231 breast,> 100 µM
same,TGI,LOX IMVI melanoma,> 100 µM
same,TGI,RXF 393 renal,83.3 µM
same,TGI,SW-620 colon,> 100 µM
same,TGI,SK-OV-3 ovarian,> 100 µM
same,TGI,HOP-62 NSCLC,> 100 µM
same,TGI,T-47D breast,> 100 µM
same,TGI,PC-3 prostate,> 100 µM
same,TGI,OVCAR-8 ovarian,> 100 µM
same,TGI,MCF7 breast,> 100 µM
same,TGI,U251 CNS,> 100 µM
same,TGI,CAKI-1 renal,> 100 µM
same,TGI,HOP-92 NSCLC,> 100 µM
same,TGI,MDA-N,> 100 µM
same,TGI,SNB-19 CNS,> 100 µM
same,TGI,UACC-257 melanoma,> 100 µM
same,TGI,DU-145 prostate,> 100 µM
same,TGI,SNB-75 CNS,50.1 µM
same,TGI,ACHN renal,> 100 µM
same,TGI,A549 NSCLC,> 100 µM
same,TGI,BT-549 breast,> 100 µM
same,TGI,CCRF-CEM leukemia,> 100 µM
same,TGI,UACC-62 melanoma,> 100 µM
same,TGI,HCT-116 colon,> 100 µM
same,TGI,MDA-MB-435,> 100 µM
same,TGI,SF-268 CNS,> 100 µM
same,TGI,HL-60(TB) leukemia,> 100 µM
same,TGI,HCC-2998 colon,> 100 µM
same,TGI,COLO 205 colon,> 100 µM
same,TGI,OVCAR-3 ovarian,> 100 µM
same,TGI,SK-MEL-2 melanoma,> 100 µM
same,TGI,NCI/ADR-RES ovarian,> 100 µM
same,TGI,EKVX NSCLC,> 100 µM
same,TGI,M14 melanoma,> 100 µM
